Experimental data published in patent publication EP0863891B1, “(METHYLSULFONYL)PHENYL-2-(5H)-FURANONES AS COX-2 INHIBITORS” (Merck Frosst Canada & Co., priority 1995, dated 1997).
pIC50: −log10 of the molar value. Like-named read-outs stand apart in the source and are kept apart here.

Key:
CHO [hCOX-2] = biological target: T1, CHO [hCOX-2] (Homo sapiens, UniProt P35354); assay: Whole cell assay for COX-2 using CHO transfected cell line (PGE2 synthesis); assay type: cell-based; details: read-out: COX-2(IC50, µM) CHO
T1 construct: expressed in transfected cells; host or cells: CHO cells, stably transfected with pCDNAIII
T1 sequence (P35354 18-604): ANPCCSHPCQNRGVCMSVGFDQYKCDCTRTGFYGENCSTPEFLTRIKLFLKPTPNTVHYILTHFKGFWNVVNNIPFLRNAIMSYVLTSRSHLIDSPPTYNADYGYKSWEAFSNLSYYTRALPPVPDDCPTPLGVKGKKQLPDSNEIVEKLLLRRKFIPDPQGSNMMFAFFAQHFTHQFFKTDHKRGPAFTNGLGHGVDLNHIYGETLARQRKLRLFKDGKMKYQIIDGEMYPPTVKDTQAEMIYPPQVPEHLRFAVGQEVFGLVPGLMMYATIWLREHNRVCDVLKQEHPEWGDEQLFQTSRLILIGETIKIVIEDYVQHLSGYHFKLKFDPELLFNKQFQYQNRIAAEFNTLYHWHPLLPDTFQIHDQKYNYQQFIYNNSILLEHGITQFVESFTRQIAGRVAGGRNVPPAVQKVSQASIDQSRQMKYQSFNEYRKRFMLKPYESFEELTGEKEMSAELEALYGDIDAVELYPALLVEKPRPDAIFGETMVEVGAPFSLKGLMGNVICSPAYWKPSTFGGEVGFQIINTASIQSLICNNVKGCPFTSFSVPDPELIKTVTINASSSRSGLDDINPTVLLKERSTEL
Protocol: Chinese hamster ovary (CHO) cell lines which have been stably transfected with an eukaryotic expression vector pCDNAIII containing either the human COX-1 or COX-2 cDNA's are used for the assay. These cell lines are referred to as CHO [hCOX-1] and CHO [hCOX-2], respectively. […] Cells (0.3 x 10^6 cells in 200 µl) are preincubated with 3 µl of the test drug or DMSO vehicle for 15 min at 37°C. […] Cells are then challenged in the presence or absence of drug with the AA/HBSS solution to yield a final concentration of 0.5 µM AA in the CHO[hCOX-1] assay and a final concentration of 10 µM AA in the CHO[hCOX-2] assay. […] The samples are centrifuged at 300 x g at 4°C for 10 min, and an aliquot of the clarified supernatant is appropriately diluted for the determination of PGE2 levels using an enzyme-linked immunoassay for PGE2 (Correlate PGE2 enzyme immunoassay kit, Assay Designs, Inc.). Cyclooxygenase activity in the absence of test compounds is determined as the difference in PGE2 levels of cells challenged with arachidonic acid versus the PGE2 levels in cells mock-challenged with ethanol vehicle. Inhibition of PGE2 synthesis by test compounds is calculated as a percentage of the activity in the presence of drug versus the activity in the positive control samples.
In the assay, inhibition is determined by measuring the amount of prostaglandin E2 (PGE2) synthesized in the presence of arachidonic acid, cyclooxygenase-1 or cyclooxygenase-2 and a putative inhibitor.

Male Sprague-Dawley rats = assay: Rat paw edema assay (carrageenan-induced); assay type: in vivo; details: po, 3 hr; for ED50: Rattus norvegicus
Protocol: Male Sprague-Dawley rats (150-200 g) are fasted overnight and are given, po, either vehicle (1% methocel or 5% Tween 80) or a test compound. One hr later, a line is drawn using a permanent marker at the level above the ankle in one hind paw to define the area of the paw to be monitored. The paw volume (V0) is measured using a plethysmometer (Ugo-Basile, Italy) based on the principle of water displacement. The animals are then injected subplantarly with 50 µl of 1% carrageenan solution in saline (PMC Corp, Maine) into the paw using an insulin syringe with a 25-gauge needle (i.e. 500 µg carrageenan per paw). Three hr later, the paw volume (V3) is measured and the increases in paw volume (V3 - VO) are calculated. The animals are sacrificed by CO2 asphyxiation and the absence or presence of stomach lesions scored. Data is compared with the vehicle-control values and percent inhibition calculated. All treatment groups are coded to eliminate observer bias.

COX-2 [1] = biological target: T2, COX-2 (Homo sapiens, UniProt P35354); assay: Human whole blood assay, COX-2 (LPS-induced PGE2 production); assay type: cell-based; set-up: endogenous in cells; host or cells: fresh heparinized human whole blood from volunteers, induced with LPS; details: Table IV; human whole blood, LPS, 24 hours; read-out: COX-2(IC50, µM) HWB
T2 sequence (P35354 18-604): T1 sequence (P35354 18-604)
Description: As well, platelets in whole blood contain a large amount of the COX-1 enzyme. Immediately following blood clotting, platelets are activated through a thrombin-mediated mechanism. […] Therefore, the degree of selectivity by the test compound can be determined by measuring the levels of PGE2 after LPS induction (COX-2) and TxB2 following blood clotting (COX-1) in the same assay.
A. COX-2 (LPS-induced PGE2 production)
Fresh blood is collected in heparinized tubes by venipuncture from both male and female volunteers. The subjects have no apparent inflammatory conditions and have not taken any NSAIDs for at least 7 days prior to blood collection. Plasma is immediately obtained from a 2mL blood aliquot to use as blank (basal levels of PGE2).

COX-2 [2] = biological target: T2, COX-2; assay: Assay of the activity of purified human COX-2 (TMPD chromogenic assay); assay type: biochemical; set-up: made in house; host or cells: Sf9 cells; details: for IC50: Table IV, purified enzyme, TMPD oxidation, read-out: COX-2(IC50, µM) TMPD
Protocol: Assay of the activity of purified human COX-2
The assay mixture (180 µL) contains 100 mM sodium phosphate, pH 6.5, 2 mM genapol X-100, 1 µM hematin, 1 mg/ml gelatin , 80-100 units of purified enzyme (One unit of enzyme is defined as the amount of enzyme required to produce an O.D. change of 0.001/min at 610 nm) and 4 µL of the test compound in DMSO. The mixture is pre-incubated at room temperature (22°C) for 15 minutes prior to initiation of the enzymatic reaction by the addition of 20 µL of a sonicated solution of I mM arachidonic acid (AA) and 1 mM TMPD in assay buffer (without enzyme or hematin). The enzymatic activity is measured by estimation of the initial velocity of TMPD oxidation over the first 36 sec of the reaction. […] IC50 values are derived from 4-parameter least squares non-linear regression analysis of the log-dose vs % inhibition plot.

[3] = Table IV, CHO[hCOX-2] cells, 10 µM AA

C[C@]1(CC(F)(F)F)OC(=O)C(Oc2ccc(F)cc2)=C1c1ccc(S(C)(=O)=O)cc1 [Example 166, (5R)-3-(4-fluorophenoxy)-5-methyl-4-(4-methylsulfonyl)phenyl-5-(2,2,2-trifluoroethyl)-5H-furan-2-one]
IC50 (CHO [hCOX-2]; [3]): 0.05 µM | Rat Paw Edema ED50(mg/kg) (Male Sprague-Dawley rats; Table IV): 4.9 mg/kg | IC50 (COX-2 [1]): 0.28 µM | IC50 (COX-2 [2]): 6.5 µM

CCC(C)OC1=C(c2ccc(S(C)(=O)=O)cc2)C(C)(C)OC1=O (stereo not shown) [Example 112, 5,5-Dimethyl-3-(2-butoxy)-4-(4-methylsulfonylphenyl)-5H-furan-2-one]
ED50 (Male Sprague-Dawley rats; Table IV): 8 mg/kg

CC[C@@]1(C)OC(=O)C(Oc2ccc(F)c(F)c2)=C1c1ccc(S(C)(=O)=O)cc1 [Example 117, (5R)-3-(3,4-Difluorophenoxy)-5-ethyl-5-methyl-4-(4-methylsulfonyl)phenyl-5H-furan-2-one]
ED50 (Male Sprague-Dawley rats; Table IV): 1 mg/kg

CC(C)COC1=C(c2ccc(S(C)(=O)=O)cc2)C(C)(C)OC1=O [Example 149, 5,5-dimethyl-3-(isobutoxy)-4-(4-(methylsulfonyl)phenyl)-5H-furan-2-one]
ED50 (Male Sprague-Dawley rats; Table IV): 0.9 mg/kg

C[C@]1(CC(F)(F)F)OC(=O)C(Oc2ccc(F)cn2)=C1c1ccc(S(C)(=O)=O)cc1 [Example 164, (5R)-3-(5-Fluoro-2-pyridyloxy)-5-methyl-4-(4-methylsulfonyl) phenyl-5-(2.2.2-trifluoroethyl)-5H-furan-2-one]
ED50 (Male Sprague-Dawley rats; Table IV): 2 mg/kg

Cc1cc(OC2=C(c3ccc(S(C)(=O)=O)cc3)C(C)(C)OC2=O)ncc1F [Example 122, 3-(5-Fluoro-4-methyl-2-pyridyloxy)-5,5-dimethyl-4-(4-methylsulfonyl)-phenyl-5H-furan-2-one]
IC50 (CHO [hCOX-2]; [3]): 0.15 µM | ED50 (Male Sprague-Dawley rats; Table IV): 1.2 mg/kg | IC50 (COX-2 [1]): 0.38 µM | IC50 (COX-2 [2]): 4.6 µM

C[C@]1(CC(F)(F)F)OC(=O)C(Oc2ccc(Br)cn2)=C1c1ccc(S(C)(=O)=O)cc1 [Example 201, (5R)-3-(5-bromo-2-pyridyloxy)-4-(4-methylsulfonylphenyl)-5-methyl-5-(2,2,2-trifluoroethyl)-5H-furan-2-one]
IC50 (CHO [hCOX-2]; [3]): 0.07 µM | ED50 (Male Sprague-Dawley rats; Table IV): 2.7 mg/kg | IC50 (COX-2 [1]): 0.18 µM | IC50 (COX-2 [2]): 14 µM

CC[C@@]1(C)OC(=O)C(OC(C)C)=C1c1ccc(S(C)(=O)=O)cc1 [Example 140, 5(R)-5-ethyl-5-methyl-4-(4-(methylsulfonyl)phenyl)-3-(2-propoxy)-5H-furan-2-one]
IC50 (CHO [hCOX-2]; [3]): 0.12 µM | ED50 (Male Sprague-Dawley rats; Table IV): 4.6 mg/kg | IC50 (COX-2 [1]): 0.54 µM

CC(OC1=C(c2ccc(S(C)(=O)=O)cc2)C(C)(C)OC1=O)C1CC1 (stereo not shown) [Example 134]
ED50 (Male Sprague-Dawley rats; Table IV): 0.9 mg/kg

CC1(C)OC(=O)C(OCC2CC2)=C1c1ccc(S(C)(=O)=O)cc1 [Example 148]
IC50 (CHO [hCOX-2]; [3]): 0.01 µM | ED50 (Male Sprague-Dawley rats; Table IV): 1.2 mg/kg

CC1(C)OC(=O)C(Oc2ccc(Cl)cc2)=C1c1ccc(S(C)(=O)=O)cc1 [Example 6, 3-(4-Chlorophenoxy)-5,5-dimethyl-4-(4-(methylsulfonyl)phenyl)-5H-furan-2-one]
ED50 (Male Sprague-Dawley rats; Table II): 7.65 mg/kg | pIC50 (COX-2 [2]): 5.70

CC1(C)OC(=O)C(Oc2ncccc2F)=C1c1ccc(S(C)(=O)=O)cc1 [Example 167, 3-(3-Fluoro-2-pyridyloxy)-5,5-dimethyl-4-(4-methylsulfonyl) phenyl-5H-furan-2-one]
IC50 (CHO [hCOX-2]; [3]): 0.11 µM | ED50 (Male Sprague-Dawley rats; Table IV): 6.4 mg/kg | IC50 (COX-2 [1]): 0.21 µM

CC[C@@]1(C)OC(=O)C(Oc2ccc(F)cc2)=C1c1ccc(S(C)(=O)=O)cc1 [Example 163, (5R)-3-(4-Fluorophenoxy)-5-ethyl-5-methyl-4-(4-methylsulfonyl) phenyl-5H-furan-2-one]
ED50 (Male Sprague-Dawley rats; Table IV): 0.64 mg/kg

Cc1cc(OC2=C(c3ccc(S(C)(=O)=O)cc3)C(C)(C)OC2=O)ncc1Cl [Example 121, 3-(5-Chloro-4-methyl-2-pyridyloxy)-5,5-dimethyl-4-(4-methylsulfonyl)-phenyl-5H-furan-2-one]
ED50 (Male Sprague-Dawley rats; Table IV): 10 mg/kg

CC[C@@]1(C)OC(=O)C(Oc2ccc(Br)cc2)=C1c1ccc(S(C)(=O)=O)cc1 [Example 128, (5R)-3-(4-Bromophenoxy)-5-ethyl-5-methyl-4-(4-methylsulfonyl)phenyl-5H-furan-2-one]
IC50 (CHO [hCOX-2]): 0.01 µM | ED50 (Male Sprague-Dawley rats; Table IV): 5 mg/kg | IC50 (COX-2 [1]): < 0.41 µM | IC50 (COX-2 [2]): 1.7 µM

CC[C@@]1(C)OC(=O)C(Oc2ccc(Cl)cc2)=C1c1ccc(S(C)(=O)=O)cc1 [Example 118, (5R)-3-(4-Chlorophenoxy)-5-ethyl-5-methyl-4-(4-methylsulfonyl)phenyl-5H-furan-2-one]
IC50 (CHO [hCOX-2]; [3]): 0.008 µM | ED50 (Male Sprague-Dawley rats; Table IV): 1.4 mg/kg | IC50 (COX-2 [1]): 0.05 µM | IC50 (COX-2 [2]): 2.2 µM

CC[C@@]1(C)OC(=O)C(Oc2ccc(Br)cn2)=C1c1ccc(S(C)(=O)=O)cc1 [Example 202, (5R)-3-(5-bromo-2-pyridyloxy)-4-(4-methylsulfonylphenyl)-5-ethyl-5-methyl-5H-furan-2-one]
ED50 (Male Sprague-Dawley rats; Table IV): 5.4 mg/kg

CC1(C)OC(=O)C(OC2CCC2)=C1c1ccc(S(C)(=O)=O)cc1 [Example 174]
ED50 (Male Sprague-Dawley rats; Table IV): 1.6 mg/kg

CC[C@@]1(C)OC(=O)C(Oc2ccc(Cl)cn2)=C1c1ccc(S(C)(=O)=O)cc1 [Example 169, (5R)-3-(5-chloro-2-pyridyloxy)-5-ethyl-5-methyl-4-(4-methylsulfonyl) phenyl-5H-furan-2-one]
IC50 (CHO [hCOX-2]; [3]): 0.05 µM | ED50 (Male Sprague-Dawley rats; Table IV): 4.6 mg/kg | IC50 (COX-2 [1]): < 0.41 µM | IC50 (COX-2 [2]): 4 µM
